PubChem BioAssay (NCI)
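Each compound was tested at five concentrations against cells in 96-well plates for 48 hours. TGI is the concentration that stops growth completely.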

Key:
Assay in all cases: inhibition of tumour cell growth, NCI panel, 48 h
EKVX NSCLC = tested on: EKVX NSCLC
HCC-2998 colon = tested on: HCC-2998 colon
HL-60(TB) leukemia = tested on: HL-60(TB) leukemia
HT29 colon = tested on: HT29 colon
IGROV1 ovarian = tested on: IGROV1 ovarian
KM12 colon = tested on: KM12 colon
M14 melanoma = tested on: M14 melanoma
MCF7 breast = tested on: MCF7 breast
OVCAR-8 ovarian = tested on: OVCAR-8 ovarian
RXF 393 renal = tested on: RXF 393 renal
SK-OV-3 ovarian = tested on: SK-OV-3 ovarian
HOP-92 NSCLC = tested on: HOP-92 NSCLC

Compound: O=C1CCCc2cc3c(cc21)CCC3C(=O)O (stereo unspecified)
- TGI (EKVX NSCLC): > 100 µM
- TGI (HCC-2998 colon): > 100 µM
- TGI (HL-60(TB) leukemia): > 100 µM
- TGI (HT29 colon): > 100 µM
- TGI (IGROV1 ovarian): > 100 µM
- TGI (KM12 colon): > 100 µM
- TGI (M14 melanoma): > 100 µM
- TGI (MCF7 breast): > 100 µM
- TGI (OVCAR-8 ovarian): > 100 µM
- TGI (RXF 393 renal): > 100 µM
- TGI (SK-OV-3 ovarian): > 100 µM

Compound: CNC(=O)CCNC(=O)CCC(=O)OC
- TGI (HT29 colon): > 100 µM
- TGI (KM12 colon): > 100 µM
- TGI (M14 melanoma): > 100 µM
- TGI (MCF7 breast): > 100 µM
- TGI (OVCAR-8 ovarian): > 100 µM
- TGI (RXF 393 renal): > 100 µM
- TGI (SK-OV-3 ovarian): > 100 µM

Compound: COc1ccc2c3ccc4c(c3n(C)c2c1)C(=O)c1ccccc1C4=O
- TGI (EKVX NSCLC): > 100 µM
- TGI (HCC-2998 colon): > 100 µM
- TGI (HL-60(TB) leukemia): > 100 µM
- TGI (HOP-92 NSCLC): > 100 µM
- TGI (HT29 colon): > 100 µM
- TGI (IGROV1 ovarian): > 100 µM
- TGI (M14 melanoma): > 100 µM
- TGI (OVCAR-8 ovarian): > 100 µM
- TGI (RXF 393 renal): > 100 µM
- TGI (SK-OV-3 ovarian): > 100 µM

Compound: Cc1cc2oc(=O)[nH]c(=S)c2c(C)c1C
- TGI (EKVX NSCLC): > 100 µM
- TGI (HCC-2998 colon): > 100 µM
- TGI (HL-60(TB) leukemia): > 100 µM
- TGI (HOP-92 NSCLC): > 100 µM
- TGI (HT29 colon): > 100 µM
- TGI (IGROV1 ovarian): > 100 µM
- TGI (KM12 colon): > 100 µM
- TGI (M14 melanoma): > 100 µM
- TGI (OVCAR-8 ovarian): > 100 µM
- TGI (RXF 393 renal): > 100 µM
- TGI (SK-OV-3 ovarian): > 100 µM

Compound: N#CS/C(Cl)=C(/C(Cl)=C(Cl)Cl)[N+](=O)[O-]
- TGI (EKVX NSCLC): > 100 µM
- TGI (HCC-2998 colon): > 100 µM
- TGI (HL-60(TB) leukemia): > 100 µM
- TGI (HT29 colon): > 100 µM
- TGI (IGROV1 ovarian): > 100 µM
- TGI (KM12 colon): > 100 µM
- TGI (M14 melanoma): > 100 µM
- TGI (MCF7 breast): > 100 µM
- TGI (OVCAR-8 ovarian): > 100 µM
- TGI (RXF 393 renal): > 100 µM
- TGI (SK-OV-3 ovarian): > 100 µM

Compound: [N-]=[N+]=NC1C(Br)C(=O)NC(=O)N1[C@H]1C[C@H](O)[C@@H](CO)O1 (stereo partly specified)
- TGI (EKVX NSCLC): > 100 µM
- TGI (HCC-2998 colon): > 100 µM
- TGI (HL-60(TB) leukemia): > 100 µM
- TGI (HOP-92 NSCLC): > 100 µM
- TGI (HT29 colon): > 100 µM
- TGI (IGROV1 ovarian): > 100 µM
- TGI (KM12 colon): > 100 µM
- TGI (M14 melanoma): > 100 µM
- TGI (OVCAR-8 ovarian): > 100 µM
- TGI (RXF 393 renal): > 100 µM
- TGI (SK-OV-3 ovarian): > 100 µM

Compound: COC12C=CC(CC1)C1C(=O)c3c(C)c(C)n(C)c3C(=O)C12 (stereo unspecified)
- TGI (EKVX NSCLC): > 100 µM
- TGI (HT29 colon): > 100 µM
- TGI (IGROV1 ovarian): > 100 µM
- TGI (KM12 colon): > 100 µM
- TGI (M14 melanoma): > 100 µM
- TGI (MCF7 breast): > 100 µM
- TGI (OVCAR-8 ovarian): > 100 µM
- TGI (RXF 393 renal): > 100 µM
- TGI (SK-OV-3 ovarian): > 100 µM

Compound: CC(C)(C)N1NC1C1NN1C(C)(C)C (stereo unspecified)
- TGI (EKVX NSCLC): > 100 µM
- TGI (HCC-2998 colon): > 100 µM
- TGI (HOP-92 NSCLC): > 100 µM
- TGI (HT29 colon): > 100 µM
- TGI (IGROV1 ovarian): > 100 µM
- TGI (KM12 colon): > 100 µM
- TGI (M14 melanoma): > 100 µM
- TGI (MCF7 breast): > 100 µM
- TGI (OVCAR-8 ovarian): > 100 µM
- TGI (RXF 393 renal): > 100 µM
- TGI (SK-OV-3 ovarian): > 100 µM

Compound: C[Si](C)(C)OC1c2[nH]c3ccccc3c2CN2C(=O)CCC12 (stereo unspecified)
- TGI (EKVX NSCLC): > 100 µM
- TGI (HCC-2998 colon): > 100 µM
- TGI (HL-60(TB) leukemia): > 100 µM
- TGI (HOP-92 NSCLC): > 100 µM
- TGI (HT29 colon): > 100 µM
- TGI (IGROV1 ovarian): > 100 µM
- TGI (KM12 colon): > 100 µM
- TGI (M14 melanoma): > 100 µM
- TGI (MCF7 breast): > 100 µM
- TGI (OVCAR-8 ovarian): > 100 µM
- TGI (SK-OV-3 ovarian): > 100 µM

Compound: Cc1ccccc1N(C)S(=O)(=O)c1ccccc1[N+](=O)[O-]
- TGI (EKVX NSCLC): > 100 µM
- TGI (HCC-2998 colon): > 100 µM
- TGI (HL-60(TB) leukemia): > 100 µM
- TGI (HT29 colon): > 100 µM
- TGI (IGROV1 ovarian): > 100 µM
- TGI (KM12 colon): > 100 µM
- TGI (M14 melanoma): > 100 µM
- TGI (MCF7 breast): > 100 µM
- TGI (OVCAR-8 ovarian): > 100 µM
- TGI (RXF 393 renal): 83 µM
- TGI (SK-OV-3 ovarian): > 100 µM

Compound: CC(c1cccc2ccccc12)/[N+]([O-])=C/c1ccccc1 (stereo unspecified)
- TGI (EKVX NSCLC): > 100 µM
- TGI (HCC-2998 colon): > 100 µM
- TGI (HL-60(TB) leukemia): > 100 µM
- TGI (HOP-92 NSCLC): > 100 µM
- TGI (HT29 colon): > 100 µM
- TGI (IGROV1 ovarian): > 100 µM
- TGI (KM12 colon): > 100 µM
- TGI (OVCAR-8 ovarian): > 100 µM
- TGI (RXF 393 renal): > 100 µM
- TGI (SK-OV-3 ovarian): > 100 µM

Compound: COc1cc2[nH]c(-c3cccc(N(C)C)c3)cc(=O)c2cc1OC
- TGI (EKVX NSCLC): > 100 µM
- TGI (HCC-2998 colon): 7.5 µM
- TGI (HL-60(TB) leukemia): > 24.6 µM
- TGI (HOP-92 NSCLC): > 100 µM
- TGI (HT29 colon): > 25.9 µM
- TGI (IGROV1 ovarian): > 100 µM
- TGI (KM12 colon): > 60.1 µM
- TGI (M14 melanoma): > 100 µM
- TGI (OVCAR-8 ovarian): > 100 µM
- TGI (SK-OV-3 ovarian): > 100 µM

Compound: O=C(c1ccncc1)n1nc(-c2ccccc2)c(N=Nc2ccc([N+](=O)[O-])cc2)c1-c1ccccc1
- TGI (EKVX NSCLC): 45.8 µM
- TGI (HCC-2998 colon): > 100 µM
- TGI (HL-60(TB) leukemia): > 100 µM
- TGI (HOP-92 NSCLC): > 100 µM
- TGI (HT29 colon): > 100 µM
- TGI (IGROV1 ovarian): > 100 µM
- TGI (KM12 colon): > 100 µM
- TGI (M14 melanoma): > 100 µM
- TGI (OVCAR-8 ovarian): > 100 µM
- TGI (SK-OV-3 ovarian): > 100 µM

Compound: O=C(Cc1ccccc1)c1ccc2[nH]c(=O)oc2c1
- TGI (EKVX NSCLC): 64.4 µM
- TGI (HL-60(TB) leukemia): > 100 µM
- TGI (HT29 colon): > 100 µM
- TGI (IGROV1 ovarian): > 100 µM
- TGI (KM12 colon): > 100 µM
- TGI (M14 melanoma): > 100 µM
- TGI (MCF7 breast): > 100 µM
- TGI (OVCAR-8 ovarian): > 100 µM
- TGI (RXF 393 renal): > 100 µM
- TGI (SK-OV-3 ovarian): > 100 µM

Compound: CC(=O)c1ccc2c(c1)oc(=O)n2CCN1CCCCC1
- TGI (EKVX NSCLC): > 100 µM
- TGI (HL-60(TB) leukemia): > 100 µM
- TGI (HT29 colon): > 100 µM
- TGI (IGROV1 ovarian): > 100 µM
- TGI (KM12 colon): > 100 µM
- TGI (M14 melanoma): > 100 µM
- TGI (MCF7 breast): > 100 µM
- TGI (OVCAR-8 ovarian): > 100 µM
- TGI (RXF 393 renal): > 100 µM
- TGI (SK-OV-3 ovarian): > 100 µM

Compound: O=[N+]([O-])C(=C(N1CCOCC1)N1CCOCC1)/C(Cl)=C(\Cl)[N+](=O)[O-]
- TGI (EKVX NSCLC): 23.2 µM
- TGI (HCC-2998 colon): 39.6 µM
- TGI (HT29 colon): 8.26 µM
- TGI (IGROV1 ovarian): 2.78 µM
- TGI (KM12 colon): 30.9 µM
- TGI (M14 melanoma): 22.1 µM
- TGI (MCF7 breast): 7.73 µM
- TGI (RXF 393 renal): 3.89 µM
- TGI (SK-OV-3 ovarian): > 100 µM

Compound: COc1ccc(CN(CCc2c[nH]c3ccccc23)Cc2ccc(OC)cc2)cc1
- TGI (EKVX NSCLC): 20.5 µM
- TGI (HCC-2998 colon): 43.1 µM
- TGI (HOP-92 NSCLC): 9.85 µM
- TGI (HT29 colon): 6.41 µM
- TGI (IGROV1 ovarian): 9.49 µM
- TGI (KM12 colon): 13.9 µM
- TGI (MCF7 breast): > 100 µM
- TGI (RXF 393 renal): 10.8 µM
- TGI (SK-OV-3 ovarian): 17.9 µM

Compound: CCC1(N=[N+]=[N-])C(=O)Nc2cc(C)ccc2C1=O (stereo unspecified)
- TGI (EKVX NSCLC): > 100 µM
- TGI (HCC-2998 colon): > 100 µM
- TGI (HL-60(TB) leukemia): 53.6 µM
- TGI (HOP-92 NSCLC): > 100 µM
- TGI (HT29 colon): > 100 µM
- TGI (IGROV1 ovarian): > 100 µM
- TGI (KM12 colon): > 100 µM
- TGI (M14 melanoma): > 100 µM
- TGI (OVCAR-8 ovarian): > 100 µM
- TGI (SK-OV-3 ovarian): > 100 µM

Compound: COC[n+]1cc2cc(OC)c(OC)cc2c2ccc3cc(OC)c(OC)cc3c21
- TGI (EKVX NSCLC): > 100 µM
- TGI (HCC-2998 colon): > 100 µM
- TGI (HL-60(TB) leukemia): > 100 µM
- TGI (HOP-92 NSCLC): > 100 µM
- TGI (HT29 colon): > 100 µM
- TGI (IGROV1 ovarian): > 100 µM
- TGI (KM12 colon): > 100 µM
- TGI (M14 melanoma): > 100 µM
- TGI (OVCAR-8 ovarian): > 100 µM
- TGI (RXF 393 renal): > 100 µM

Compound: CC(=O)Nc1ccc2c(C)c3c4ccccc4n(C)c3nc2n1
- TGI (EKVX NSCLC): > 100 µM
- TGI (HCC-2998 colon): 30.9 µM
- TGI (HL-60(TB) leukemia): 41.2 µM
- TGI (HT29 colon): > 100 µM
- TGI (IGROV1 ovarian): > 100 µM
- TGI (KM12 colon): 40.2 µM
- TGI (M14 melanoma): 52.3 µM
- TGI (MCF7 breast): 96.7 µM
- TGI (OVCAR-8 ovarian): > 100 µM
- TGI (RXF 393 renal): 34.6 µM
